Source: ChEMBL document CHEMBL3885881, “DrugMatrix”

Species: Rattus norvegicus
Assay: DrugMatrix - Regimen: Daily Repeat
Assay type: toxicity, organism-based, Sprague-Dawley
Parameters: regimen Daily Repeat, gender Male, age 6-8 weeks
Settings: in vivo, po, route oral GAVAGE, vehicle 100 % WATER; for BASOPHIL / EOSINOPHIL / ERYTHROCYTE COUNT / HEMATOCRIT / HEMOGLOBIN / LEUKOCYTE COUNT / LYMPHOCYTE / MEAN CORPUSCULAR HEMOGLOBIN / MEAN CORPUSCULAR HEMOGLOBIN CONCENTRATION / MEAN CORPUSCULAR VOLUME / MONOCYTE / NEUTROPHIL / PLATELET COUNT: tissue Blood; for ALANINE AMINOTRANSFERASE / ALBUMIN / ALKALINE PHOSPHATASE / ASPARTATE AMINOTRANSFERASE / BLOOD UREA NITROGEN / CHLORIDE / CHOLESTEROL / CREATINE PHOSPHOKINASE / CREATININE / GLUCOSE / PHOSPHORUS / POTASSIUM / SODIUM / TOTAL BILIRUBIN / TOTAL PROTEIN: tissue Plasma
[1] = 0 mg/kg, 72 h, dose level Control, time 3 day
[2] = 0 mg/kg, 120 h, dose level Control, time 5 day
[3] = 10 mg/kg, 72 h, dose level Low, time 3 day

`O=C(O)c1cc(=O)c2c(OCC(O)COc3cccc4oc(C(=O)O)cc(=O)c34)cccc2o1` [CROMOLYN] was tested, and the BASOPHIL [1] was 0%, the EOSINOPHIL [1] was 0.33% and the “ERYTHROCYTE COUNT” value [1] was 5.88 x10E6/uL. The HEMATOCRIT [1] was 36.47%, the HEMOGLOBIN [1] was 14.2 G/DL and the “LEUKOCYTE COUNT” value [1] was 9.28 x10E3/uL. The LYMPHOCYTE [1] was 82.33%, the “MEAN CORPUSCULAR HEMOGLOBIN” value [1] was 24.2 pg and the “MEAN CORPUSCULAR HEMOGLOBIN CONCENTRATION” value [1] was 38.97 G/DL. For the same molecule, the “MEAN CORPUSCULAR VOLUME” value [1] was 62.12 fL, the MONOCYTE [1] was 2.33% and the NEUTROPHIL [1] was 15%. The “PLATELET COUNT” value [1] was 1114 x10E3/uL, the “ALANINE AMINOTRANSFERASE” value [1] was 41.17 u/L and the ALBUMIN [1] was 3.95 G/DL. For the same molecule, the “ALKALINE PHOSPHATASE” value [1] was 382.5 u/L, the “ASPARTATE AMINOTRANSFERASE” value [1] was 67.33 u/L and the “BLOOD UREA NITROGEN” value [1] was 15.5 mg/dL. For the same molecule, the CHLORIDE [1] was 106.33 MEQ/L, the CHOLESTEROL [1] was 77.67 mg/dL and the “CREATINE PHOSPHOKINASE” value [1] was 123.33 u/L. The CREATININE [1] was 0.62 mg/dL, the GLUCOSE [1] was 185.67 mg/dL and the PHOSPHORUS [1] was 10.2 mg/dL. The POTASSIUM [1] was 6.72 MEQ/L, the SODIUM [1] was 149.67 MEQ/L and the “TOTAL BILIRUBIN” value [1] was 0.97 mg/dL. The “TOTAL PROTEIN” value [1] was 6.58 G/DL, the BASOPHIL [2] was 0% and the EOSINOPHIL [2] was 0%. The “ERYTHROCYTE COUNT” value [2] was 5.99 x10E6/uL, the HEMATOCRIT [2] was 36.88% and the HEMOGLOBIN [2] was 14.77 G/DL. The “LEUKOCYTE COUNT” value [2] was 11.35 x10E3/uL, the LYMPHOCYTE [2] was 85.5% and the “MEAN CORPUSCULAR HEMOGLOBIN” value [2] was 24.7 pg. For the same molecule, the “MEAN CORPUSCULAR HEMOGLOBIN CONCENTRATION” value [2] was 40.07 G/DL, the “MEAN CORPUSCULAR VOLUME” value [2] was 61.58 fL and the MONOCYTE [2] was 1.83%. For the same molecule, the NEUTROPHIL [2] was 12.67%, the “PLATELET COUNT” value [2] was 979.67 x10E3/uL and the “ALANINE AMINOTRANSFERASE” value [2] was 36.5 u/L. For the same molecule, the ALBUMIN [2] was 3.63 G/DL, the “ALKALINE PHOSPHATASE” value [2] was 303.5 u/L and the “ASPARTATE AMINOTRANSFERASE” value [2] was 61 u/L. The “BLOOD UREA NITROGEN” value [2] was 16.5 mg/dL, the CHLORIDE [2] was 106.17 MEQ/L and the CHOLESTEROL [2] was 60.5 mg/dL. For the same molecule, the “CREATINE PHOSPHOKINASE” value [2] was 154.83 u/L, the CREATININE [2] was 0.6 mg/dL and the GLUCOSE [2] was 201 mg/dL. For the same molecule, the PHOSPHORUS [2] was 10.1 mg/dL, the POTASSIUM [2] was 6.85 MEQ/L and the SODIUM [2] was 148.17 MEQ/L. The “TOTAL BILIRUBIN” value [2] was 0.58 mg/dL, the “TOTAL PROTEIN” value [2] was 5.9 G/DL and the BASOPHIL [3] was 0%. For the same molecule, the EOSINOPHIL [3] was 0%, the “ERYTHROCYTE COUNT” value [3] was 5.62 x10E6/uL and the HEMATOCRIT [3] was 34.93%. For the same molecule, the HEMOGLOBIN [3] was 13.6 G/DL, the “LEUKOCYTE COUNT” value [3] was 10.7 x10E3/uL and the LYMPHOCYTE [3] was 79%. For the same molecule, the “MEAN CORPUSCULAR HEMOGLOBIN” value [3] was 24.23 pg, the “MEAN CORPUSCULAR HEMOGLOBIN CONCENTRATION” value [3] was 38.93 G/DL and the “MEAN CORPUSCULAR VOLUME” value [3] was 62.2 fL. For the same molecule, the MONOCYTE [3] was 2.33%, the NEUTROPHIL [3] was 18.67% and the “PLATELET COUNT” value [3] was 1007 x10E3/uL. For the same molecule, the “ALANINE AMINOTRANSFERASE” value [3] was 38.67 u/L, the ALBUMIN [3] was 3.87 G/DL and the “ALKALINE PHOSPHATASE” value [3] was 381.33 u/L. For the same molecule, the “ASPARTATE AMINOTRANSFERASE” value [3] was 60.67 u/L, the “BLOOD UREA NITROGEN” value [3] was 13 mg/dL and the CHLORIDE [3] was 107.33 MEQ/L. For the same molecule, the CHOLESTEROL [3] was 71.67 mg/dL, the “CREATINE PHOSPHOKINASE” value [3] was 119.67 u/L and the CREATININE [3] was 0.6 mg/dL. For the same molecule, the GLUCOSE [3] was 182 mg/dL, the PHOSPHORUS [3] was 10.4 mg/dL and the POTASSIUM [3] was 6.6 MEQ/L. For the same molecule, the SODIUM [3] was 150.33 MEQ/L, the “TOTAL BILIRUBIN” value [3] was 0.8 mg/dL and the “TOTAL PROTEIN” value [3] was 6.33 G/DL.
